Molecular target: Nucleic Acid
Experiment: Dissociation constant of conjugate DNA complexes in 0.05 HEPES buffer of pH 7.3, at room temperature
Assay type: nucleic-acid assay

Kd | Compound
4.8 nM | CCCCC(=O)NCCCN(CC(=O)NCCCC(=O)Nc1cc(C(=O)Nc2cc(C(=O)Nc3cc(C(=O)NCCCC(=O)Nc4cc(C(=O)Nc5cc(C(=O)Nc6cc(C(=O)NCCCN(C)C)n(C)c6)n(C)c5)n(C)c4)n(C)c3)n(C)c2)n(C)c1)CC(=O)NCCCC(=O)Nc1cc(C(=O)Nc2cc(C(=O)Nc3cc(C(=O)NCCCC(=O)Nc4cc(C(=O)Nc5cc(C(=O)Nc6cc(C(=O)NCCCN(C)C)n(C)c6)n(C)c5)n(C)c4)n(C)c3)n(C)c2)n(C)c1
18 nM | CCCCC(=O)NCCCCCCOP(=O)(NCCCC(=O)Nc1cc(C(=O)Nc2cc(C(=O)Nc3cc(C(=O)NCCCC(=O)Nc4cc(C(=O)Nc5cc(C(=O)Nc6cc(C(=O)NCCCN(C)C)n(C)c6)n(C)c5)n(C)c4)n(C)c3)n(C)c2)n(C)c1)NCCCC(=O)Nc1cc(C(=O)Nc2cc(C(=O)Nc3cc(C(=O)NCCCC(=O)Nc4cc(C(=O)Nc5cc(C(=O)Nc6cc(C(=O)NCCCN(C)C)n(C)c6)n(C)c5)n(C)c4)n(C)c3)n(C)c2)n(C)c1
4.3 nM | CCCCC(=O)N(CC(=O)NCCCC(=O)Nc1cc(C(=O)Nc2cc(C(=O)Nc3cc(C(=O)NCCCC(=O)Nc4cc(C(=O)Nc5cc(C(=O)Nc6cc(C(=O)NCCCN(C)C)n(C)c6)n(C)c5)n(C)c4)n(C)c3)n(C)c2)n(C)c1)CC(=O)NCCCC(=O)Nc1cc(C(=O)Nc2cc(C(=O)Nc3cc(C(=O)NCCCC(=O)Nc4cc(C(=O)Nc5cc(C(=O)Nc6cc(C(=O)NCCCN(C)C)n(C)c6)n(C)c5)n(C)c4)n(C)c3)n(C)c2)n(C)c1

Compound | Kd
CN(C)CCCNC(=O)c1cc(NC(=O)c2cc(NC(=O)c3cc(NC(=O)CCCNC(=O)c4cc(NC(=O)c5cc(NC(=O)c6cc(NC(=O)CCCNP(=O)(CCCCN7C(=O)c8ccccc8C7=O)NCCCC(=O)Nc7cc(C(=O)Nc8cc(C(=O)Nc9cc(C(=O)NCCCC(=O)Nc%10cc(C(=O)Nc%11cc(C(=O)Nc%12cc(C(=O)NCCCN(C)C)n(C)c%12)n(C)c%11)n(C)c%10)n(C)c9)n(C)c8)n(C)c7)cn6C)cn5C)cn4C)cn3C)cn2C)cn1C | 34 nM

— ChEMBL document CHEMBL1142775, “Functionalized head-to-head hairpin polyamides: synthesis, double-stranded DNA-binding activity and affinity” (Bioorg Med Chem Lett, 2005)
